Measured values as given in patent US20090209610A1, “Polymorphic form of 6-(4-chlorophenyl)-2,2-dimethyl-7-Phenyl-2,3-Dihydro-1h-Pyrrolizin-5-Ylacetic Acid” (Merckle GmgH, priority 2005, published 2009).

How the values were obtained:
[1] = stability of the crystalline form during drying and storage, chemical stability; assay type: physicochemical
Description: Polymorph B has a crystalline structure and high purity. Owing to the crystalline structure, polymorph B is stable during drying and storage. No phase transitions and no secondary aggregations are to be observed.
Surface phenomena such as electrostatic charging, adhesion, adsorption etc. occur to a distinctly smaller extent by comparison with polymorph A. The crystal structure additionally results in a high chemical stability. Owing to the narrow particle size distribution compared with polymorph A, it is possible to employ polymorph B directly for producing pharmaceutical formulations. An additional grinding step is unnecessary.

[2] = molecular target: cyclooxygenase (CO) and lipoxygenase (LO); test: inhibitory effect on the enzymes cyclooxygenase and lipoxygenase; assay type: biochemical; settings: ratio of IC50 lipoxygenase to IC50 cyclooxygenase
Description: It is notable for a strong analgesic effect and for a similar inhibitory effect on the enzymes cyclooxygenase (CO) and lipoxygenase (LO) (IC50LO/IC50CO˜1). It can therefore be used in the treatment of disorders associated with a change in arachidonic acid metabolism. Particular mention should be made of rheumatoid diseases and the prevention of allergy-induced disorders. […] In addition, it can be used for the treatment of hypercholesterolaemia.

[3] = particle size measurement by laser diffraction (Helios-Sympatec); assay type: physicochemical; settings: for Particle size distribution: Table 3, overall range
Description: Polymorph B has a narrow particle size distribution: d10-d90=1.8 μm-15.9 μm. The average particle size is 6.7 μm. Particle size measurements were carried out by means of laser diffraction spectra using the Helios-Sympatec system: dry disperser RODOS; focal length 50 mm.

| stability during drying and storage ([1]; no phase transitions and no secondary aggregations observed) | chemical stability ([1]; resulting from the crystal structure) | IC50LO/IC50CO [2] | Particle size distribution [3] | average particle size ([3]; laser diffraction) [μm] | particle size distribution d10 ([3]; laser diffraction, dry disperser RODOS, focal length 50 mm) [μm] | Structure (SMILES) |
| --- | --- | --- | --- | --- | --- | --- |
| stable | high | ~1 | 0.5-70 μm | 6.7 | 1.8 | CC1(C)Cc2c(-c3ccccc3)c(-c3ccc(Cl)cc3)c(CC(=O)O)n2C1 [Polymorph B, 6-(4-chlorophenyl)-2,2-dimethyl-7-phenyl-2,3-dihydro-1H-pyrrolizin-5-ylacetic acid] |
| – | – | – | 2-500 μm | – | – | CC1(C)Cc2c(-c3ccccc3)c(-c3ccc(Cl)cc3)c(CC(=O)O)n2C1 [Polymorph A, 6-(4-chlorophenyl)-2,2-dimethyl-7-phenyl-2,3-dihydro-1H-pyrrolizin-5-ylacetic acid] |
